Source: ChEMBL document CHEMBL5053529 (J Med Chem, 2021)
≈ marks a conversion by molar mass, not a printed value. Values belong to the compound of their own block, whether it stands above or below them.

Key:
[1] = Half life in Sprague-Dawley rat at 6 mg/kg, po; format: ADME, organism-based; conditions: in vivo
[2] = Hepatic clearance in Sprague-Dawley rat at 6 mg/kg, po; format: ADME, organism-based; conditions: in vivo
[3] = Cmax in Sprague-Dawley rat at 6 mg/kg, po; format: ADME, organism-based; set-up: dose 6 mg/kg, route po; conditions: in vivo
[4] = Volume of distribution in steady state in Sprague-Dawley rat at 6 mg/kg, po; format: ADME, organism-based; conditions: in vivo
[5] = AUC (0 to infinity) in Sprague-Dawley rat at 6 mg/kg, po; format: ADME, organism-based; set-up: time infinity, dose 6 mg/kg, route po; conditions: in vivo
[6] = Volume of distribution in steady state in Beagle dog at 0.3 mg/kg, po; format: ADME, organism-based, Canis lupus familiaris; conditions: in vivo
[7] = Drug concentration in Sprague-Dawley rat blood at 100 umol/kg, po measured after 4 hrs by LC-MS/MS analysis; format: ADME, organism-based; conditions: dose 100 µmol/kg, read-out: Drug uptake
[8] = Half life in Beagle dog at 0.3 mg/kg, po; format: ADME, organism-based, Canis lupus familiaris; conditions: in vivo
[9] = Unbound drug concentration in Sprague-Dawley rat brain at 10 umol/kg, po measured after 4 hrs by LC-MS/MS analysis; format: ADME, organism-based; conditions: in vivo, dose 10 µmol/kg
[10] = Kinetic solubility of the compound at pH 7.4; format: physicochemical; conditions: buffer, read-out: Kinetic_solubility
[11] = Clearance in mouse liver microsomes incubated up to 80 mins by LC-MS/MS analysis; format: ADME, Microsome; conditions: 1.333 h
[12] = Clearance in rat liver microsomes incubated up to 80 mins by LC-MS/MS analysis; format: ADME, Microsome; conditions: 1.333 h
[13] = Oral bioavailability in C57BL/6 mouse at 6 mg/kg; format: ADME, organism-based; conditions: in vivo
[14] = Hepatic clearance in Beagle dog at 0.3 mg/kg, po; format: ADME, organism-based, Canis lupus familiaris; conditions: in vivo
[15] = Drug concentration in Sprague-Dawley rat blood at 10 umol/kg, po measured after 4 hrs by LC-MS/MS analysis; format: ADME, organism-based; conditions: dose 10 µmol/kg, read-out: Drug uptake
[16] = AUC (0 to infinity) in Beagle dog at 0.3 mg/kg, po; format: ADME, organism-based, Canis lupus familiaris; set-up: time infinity, dose 0.3 mg/kg, route po; conditions: in vivo
[17] = Drug concentration in Sprague-Dawley rat blood at 30 umol/kg, po measured after 4 hrs by LC-MS/MS analysis; format: ADME, organism-based; conditions: dose 30 µmol/kg, read-out: Drug uptake
[18] = Solubility of the compound at pH 6.8; format: physicochemical; conditions: buffer
[19] = Thermodynamic solubility of the compound at pH 6.8; format: physicochemical; conditions: buffer, read-out: Therm_solubility
[20] = Unbound drug concentration in Sprague-Dawley rat brain at 100 umol/kg, po measured after 4 hrs by LC-MS/MS analysis; format: ADME, organism-based; conditions: in vivo, dose 100 µmol/kg
[21] = Drug concentration in Sprague-Dawley rat brain at 100 umol/kg, po measured after 4 hrs by LC-MS/MS analysis; format: ADME, organism-based; conditions: dose 100 µmol/kg, read-out: Drug uptake
[22] = Octanol/water partition coefficient, log P of the compound; format: physicochemical
[23] = Clearance in Beagle dog at 6 mg/kg, po; format: ADME, organism-based, Canis lupus familiaris; conditions: in vivo
[24] = Unbound drug concentration in Sprague-Dawley rat brain at 30 umol/kg, po measured after 4 hrs by LC-MS/MS analysis; format: ADME, organism-based; conditions: in vivo, dose 30 µmol/kg
[25] = Volume of distribution in steady state in C57BL/6 mouse at 6 mg/kg, po; format: ADME, organism-based; conditions: in vivo
[26] = Drug concentration in Sprague-Dawley rat brain at 3 umol/kg, po measured after 4 hrs by LC-MS/MS analysis; format: ADME, organism-based; conditions: dose 3 µmol/kg, read-out: Drug uptake
[27] = Cmax in C57BL/6 mouse at 6 mg/kg, po; format: ADME, organism-based; set-up: dose 6 mg/kg, route po; conditions: in vivo
[28] = Drug concentration in Sprague-Dawley rat brain at 30 umol/kg, po measured after 4 hrs by LC-MS/MS analysis; format: ADME, organism-based; conditions: dose 30 µmol/kg, read-out: Drug uptake
[29] = Unbound drug concentration in Sprague-Dawley rat brain at 3 umol/kg, po measured after 4 hrs by LC-MS/MS analysis; format: ADME, organism-based; conditions: in vivo, dose 3 µmol/kg
[30] = Oral bioavailability in Beagle dog at 0.3 mg/kg; format: ADME, organism-based, Canis lupus familiaris; conditions: in vivo
[31] = Half life in C57BL/6 mouse at 6 mg/kg, po; format: ADME, organism-based; conditions: in vivo
[32] = Thermodynamic solubility of the compound at pH 1; format: physicochemical; conditions: buffer, read-out: Therm_solubility
[33] = AUC (0 to infinity) in C57BL/6 mouse at 6 mg/kg, po; format: ADME, organism-based; set-up: time infinity, dose 6 mg/kg, route po; conditions: in vivo
[34] = Drug concentration in Sprague-Dawley rat blood at 3 umol/kg, po measured after 4 hrs by LC-MS/MS analysis; format: ADME, organism-based; conditions: dose 3 µmol/kg, read-out: Drug uptake
[35] = Oral bioavailability in Sprague-Dawley rat at 6 mg/kg; format: ADME, organism-based; conditions: in vivo
[36] = Drug concentration in Sprague-Dawley rat brain at 10 umol/kg, po measured after 4 hrs by LC-MS/MS analysis; format: ADME, organism-based; conditions: dose 10 µmol/kg, read-out: Drug uptake
[37] = Clearance in human liver microsomes incubated up to 80 mins by LC-MS/MS analysis; format: ADME, Microsome; conditions: 1.333 h
[38] = Cmax in Beagle dog at 0.3 mg/kg, po; format: ADME, organism-based, Canis lupus familiaris; set-up: dose 0.3 mg/kg, route po; conditions: in vivo

half-life [1]: 4.9 h
CLH [2]: 17 mL/min/kg
Cmax [3]: 128 nM
Vdss [4]: 9 L/kg
AUC [5]: 0.973 µM·h
Compound: Cc1cc(C#N)cnc1C(=O)Nc1ccc(F)c([C@]2(C)CO[C@@](C)(C(F)(F)F)C(N)=N2)c1

Vdss [6]: 3.9 L/kg
concentration at 4 h [7]: 3430 nM
half-life [8]: 23.4 h
half-life [1]: 13.3 h
Drug uptake(free) [9]: 0.008 µM
solubility kinetic [10]: 15 µg/mL (≈ 29.2 µM)
CLH [2]: 37 mL/min/kg
CLH [11]: 32 µL/min/mg
CLH [12]: 37 µL/min/mg
Cmax [3]: 146 nM
bioavailability [13]: 48%
CLH [14]: 3.3 mL/min/kg
concentration at 4 h [15]: 440 nM
AUC(0-inf) [16]: 7.75 µM·h
Vdss [4]: 6.9 L/kg
concentration at 4 h [17]: 1710 nM
solubility [18]: 13 µg/mL (≈ 25.3 µM)
solubility thermodynamic [19]: 23 µg/mL (≈ 44.8 µM)
Drug uptake(free) [20]: 0.03 µM
AUC [5]: 2.045 µM·h
concentration at 4 h [21]: 3600 nM
logP [22]: 4.3
CL/F [23]: 2 mL/min/kg
Drug uptake(free) [24]: 0.12 µM
Vdss [25]: 6.9 L/kg
concentration at 4 h [26]: 180 nM
Cmax [27]: 82 nM
concentration at 4 h [28]: 3280 nM
Drug uptake(free) [29]: 0.002 µM
bioavailability [30]: 57%
half-life [31]: 9.5 h
solubility thermodynamic [32]: > 1500 µg/mL
AUC [33]: 1.16 µM·h
concentration at 4 h [34]: 160 nM
bioavailability [35]: 60%
concentration at 4 h [36]: 850 nM
CLH [37]: 26 µL/min/mg
Cmax [38]: 257 nM
Compound: C[C@@]1(c2nc(NC(=O)c3ncc(C(F)(F)F)cc3Cl)ccc2F)CO[C@@](C)(C(F)(F)F)C(N)=N1

CLH [11]: 866 µL/min/mg
CLH [12]: 204 µL/min/mg
Compound: COCCOc1cnc(C(=O)Nc2ccc(F)c([C@]3(C)CO[C@@](C)(C(F)(F)F)C(N)=N3)n2)c(N)n1
